Data on two compounds can be found in article PMC11570809, “Novel N-phenyl-2-(aniline) benzamide hydrochloride salt development for colon cancer therapy” (Frontiers in Pharmacology, 2024).

“Also recorded” adds a separate entry of the source. Structures can show the parent of a compound that is named as a salt.

Data set [1] is described as follows: Thermodynamic solubility in water (HPLC). The class given is physicochemical. To be noted: for Solubility, equivalent molar concentration: water. Here is the method:
The thermodynamic solubility of N53·HCl in water was determined by high-performance liquid chromatography (Waterage, Alliance HPLC E2695, United States). The HPLC mobile phases were water (0.1% formic acid) and methanol separated by gradient chromatography at 0.5 mL/min. The chromatographic conditions were followed. Mobile phase: methanol: H2O = 10:90; 15 min; wavelength: 254 nm; temperature: 25°C. N53 and N53·HCl were dissolved in methanol to form a gradient concentration standard solution (0.32, 1.6, 8, 40, 200 and 1,000 μg/mL). The standard solutions were scanned at 254 nm and the absorption area was recorded against the concentration curve. Saturated solutions of the compounds were prepared by magnetic stirring at 37°C for 4 h in deionized water in small volumes and the solid compounds were removed using Millipore 0.45 μm filters. The saturated solution was then scanned at 254 nm. The thermodynamic solubility in water was calculated from the absorption area and curve.

Another data set concerns PC-3. Put plainly: MTT anti-proliferation assay, PC-3. The data set is classed as cell-based. The following applies: Homo sapiens, PC-3, 72 h, read-out: IC50 ± SD PC-3.
The subject of a further data set is HT29. Put plainly: MTT anti-proliferation assay, HT29. The following applies: 72 h, read-out: IC50 ± SD HT29. The data set is classed as cell-based, human. The method, then: The anti-proliferation activities of synthesized compounds to colon cancer cell lines were measured by the MTT (3-[4,5-dimethyl-2-thiazolyl]-2,5-diphenyl-2H-tet razolium bromide) assay. First, the cell suspension was prepared by trypsin and the corresponding medium, cells were diluted to 5 × 10^5 cells/mL, and 96-well plates were added 200 μL per well. The plates were maintained at 37°C in a humidified atmosphere containing 5% CO2 overnight. Then compounds at gradient concentrations were added to cells in the logarithmic phase to make the final concentration at 0.5, 1, 2, 4, 8, 16, and 32 μM. The cells were treated with tested compounds for 72 h, and the growth curve assay was tested in 24 h. When the time was up, 20 μL of MTT solution (5 mg/mL in PBS) was added into each well to incubate for 4 h at 37°C. Then the supernatant liquid was removed, 150 μL DMSO was added into every well to dissolve formazan crystals and read the absorbance at 570 nm by Spark microplate spectrophotometer (Tecan, Swiss). The IC50 values were analyzed by IBM SPASS Statistics 25.0 software. The data are all derived from three parallel experiments (n = 3) and expressed as mean ± SD.

Another data set has as its system HT29 cells. Description: Plane colony assay, HT29. The data set is classed as cell-based, human. The following applies: HT29, 1, 2 and 4 µM. Here is the method:
(§1) In 6-well plates, HT29 cells and RKO cells (1 × 10^3 cells/well) were inoculated and maintained overnight. Then treated with N53 and N53·HCl at different concentrations for 24 h and with normal culture-medium for 7 days respectively. After that, removed supernatant and fixed by 4% paraformaldehyde for 15 min. Then fixed cells were stained with 1% crystal violet dye for 15 min and rinsed with water. Finally, colonies were counted according to rules that nonoverlapping groups of at least 50 cells. The data are all derived from three parallel experiments (n = 3) and expressed as mean ± SD.

A further data set concerns RKO cells. Put plainly: Plane colony assay, RKO. The class given is cell-based, human. To be noted: RKO, 1, 2 and 4 µM. Here is the method: as §1
A short description of data set [2]: Acute toxicity study (OECD guidelines), single dose by gavage. The data set is classed as in vivo. Here is the method:
Acute toxicity studies were conducted for N53·HCl following OECD guidelines. Sixteen Kunming mice were purchased from SPF (Beijing) Biotechnology Co., Ltd. The mice were randomly divided into two groups (n = 8, 4 female and 4 male mice per group). The control group was treated with saline containing 10% DMSO, 10% Solutol HS -15, and the experimental group was treated with N53·HCl at a dose of 1,000 mg/kg (suspended in saline containing 10% DMSO and 10% Solutol HS -15).
All treatments were administered with a single dose by gavage. […] It can be seen that N53·HCl is a safe agent with an oral LD50 of more than 1,000 mg/kg in mice.

The nature of data set [3]: Hygroscopicity and stability of the salt forms. The class given is physicochemical. To be noted: solid salt.

By solubility is commonly meant the dissolved amount per volume that the medium holds. Usually IC50 stands for the point on the concentration scale where inhibition reaches its midpoint. In general, LD50 refers to the dose at which mortality reaches 50%. Lower therefore signals greater toxicity. Compound `Cc1c(Cl)cccc1Nc1ccccc1C(=O)Nc1ccc(N2CCN(C)CC2)cc1` [N53·HCl, 4-(4-(2-((3-chloro-2-methylphenyl)amino)ben-zamido)phenyl)-1-methylpiperazin-1-ium] returned a solubility at 4 h in data set [1] (deionized water, thermodynamic, 37°C, 4 h) of 540 µg/mL. The Water solubility in data set [1] (thermodynamic, deionized water, 37°C, 4 h) was determined as 540 µg/mL. The “Solubility, equivalent molar concentration” value in data set [1] stood at 1150 µM. Further, the IC50 with PC-3 was found to be 13.7 ± 0.8 µM; in the data set on HT29 it was 2.95 ± 0.08 µM. The “Number of cell clones formed” value was “decreased significantly and dose-dependently” with HT29 cells; “decreased significantly and dose-dependently” with RKO cells. The “Gross and histological (H&E) examination of major organs (heart, liver, kidney, spleen)” value in data set [2] (1,000 mg/kg single dose by gavage, after 14 days) is recorded as “no obvious toxic effects; also recorded: no significant abnormalities”. Further, the “Symptoms and body weight compared to vehicle-treated control” value in data set [2] (1,000 mg/kg single dose by gavage, monitored 14 days) was “no significant changes in symptoms and body weight”. In addition, the LD50 at 14 days in data set [2] (both sexes, Kunming, mouse, in vivo, po) was over 1000 mg/kg. In data set [3], the Hygroscopicity result is “low in hygroscopicity”. Further, the Stability entry in data set [3] is given as “relatively stable under various conditions”.
Consider `Cc1c(Cl)cccc1Nc1ccccc1C(=O)Nc1ccc(N2CCN(C)CC2)cc1` [Compound N53, 2-((3-chloro-2-methylphenyl)amino)-N-(4-(4-methylp-iperazin-1-yl)phenyl)benzamide], for which, in data set [1], the “Solubility, equivalent molar concentration” value was under 0.74 µM.
